Test results: ChEMBL document CHEMBL3044861, “Synthesis and Herbicidal Activity of New 2-(1-Carbamoyl-1, 2, 4-triazol-3-ylsulfonyl) alkanoates” (J Pestic Sci, 2002)

Legend:
Oryza sativa [1] = assay: Toxicity in Oryza sativa (rice) assessed as injury at 25 g/ha pre-emergence application under paddy conditions by crop safety assay; type: organism-based; conditions: in vivo, other
[2] = system: Schoenoplectiella juncoides; assay: Herbicidal activity against Schoenoplectiella juncoides assessed as killing at 25 g/ha pre-emergence application under paddy conditions; type: functional
Pontederia vaginalis [3] = assay: Herbicidal activity against Monochoria vaginalis assessed as killing at 25 g/ha pre-emergence application under paddy conditions; type: functional
[4] = Herbicidal activity against broadleaf weed assessed as killing at 25 g/ha pre-emergence application under paddy conditions; type: functional
Echinochloa oryzicola [5] = assay: Herbicidal activity against Echinochloa oryzicola assessed as killing at 25 g/ha pre-emergence application under paddy conditions; type: functional
[6] = Octanol-water partition coefficient, log K of the compound; type: physicochemical; conditions: read-out: log K
Echinochloa oryzicola [7] = assay: Herbicidal activity against Echinochloa oryzicola assessed as killing pre-emergence application under paddy conditions; type: functional
Oryza sativa [8] = assay: Toxicity in Oryza sativa (rice) assessed as injury at 50 g/ha pre-emergence application under paddy conditions by crop safety assay; type: organism-based; conditions: in vivo, other
[9] = system: Schoenoplectiella juncoides; assay: Herbicidal activity against Schoenoplectiella juncoides assessed as killing at 50 g/ha pre-emergence application under paddy conditions; type: functional
Pontederia vaginalis [10] = assay: Herbicidal activity against Monochoria vaginalis assessed as killing at 50 g/ha pre-emergence application under paddy conditions; type: functional
[11] = Herbicidal activity against broadleaf weed assessed as killing at 50 g/ha pre-emergence application under paddy conditions; type: functional
Echinochloa oryzicola [12] = assay: Herbicidal activity against Echinochloa oryzicola assessed as killing at 50 g/ha pre-emergence application under paddy conditions; type: functional
[13] = system: Schoenoplectiella juncoides; assay: Herbicidal activity against Schoenoplectiella juncoides assessed as killing at 10 g/ha pre-emergence application under paddy conditions; type: functional
Pontederia vaginalis [14] = assay: Herbicidal activity against Monochoria vaginalis assessed as killing at 10 g/ha pre-emergence application under paddy conditions; type: functional
[15] = Herbicidal activity against broadleaf weed assessed as killing at 10 g/ha pre-emergence application under paddy conditions; type: functional
Echinochloa oryzicola [16] = assay: Herbicidal activity against Echinochloa oryzicola assessed as killing at 10 g/ha pre-emergence application under paddy conditions; type: functional
Oryza sativa [17] = assay: Toxicity in Oryza sativa (rice) assessed as injury at 10 g/ha pre-emergence application under paddy conditions by crop safety assay; type: organism-based; conditions: in vivo, other
Zea mays = assay: Herbicidal activity against Zea mays (maize)assessed as killing at 500 g/ha pre-emergence application upland paddy conditions measured after 14 days; type: functional
Chenopodium album = assay: Herbicidal activity against Chenopodium album assessed as killing at 500 g/ha pre-emergence application upland paddy conditions measured after 14 days; type: functional
Digitaria ciliaris = assay: Herbicidal activity against Digitaria ciliaris assessed as killing at 500 g/ha pre-emergence application upland paddy conditions measured after 14 days; type: functional
Echinochloa crus-galli = assay: Herbicidal activity against Echinochloa crus-galli (barnyard grass) assessed as killing at 500 g/ha pre-emergence application upland paddy conditions measured after 14 days; type: functional

SMILES | Activity (Oryza sativa [1]) | Activity [2] | Activity (Pontederia vaginalis [3]) | Activity [4] | Activity (Echinochloa oryzicola [5]) | logP [6] | log(1/ED80) (Echinochloa oryzicola [7]) | Activity (Oryza sativa [8]) | Activity [9] | Activity (Pontederia vaginalis [10]) | Activity [11] | Activity (Echinochloa oryzicola [12]) | Activity (Zea mays) | Activity (Chenopodium album) | Activity (Digitaria ciliaris) | Activity (Echinochloa crus-galli) | other results
CCN(CC)C(=O)n1cnc(S(=O)(=O)C(CC(C)C)C(=O)OC(C)(C)C)n1 (configuration not stated) | 10% | 10% | 10% | 10% | 30% | 0.99 | 1 | 10% | 10% | 10% | 10% | 90% | – | – | – | – | –
CCCOC(=O)C(CC(C)C)S(=O)(=O)c1ncn(C(=O)N(CC)CC)n1 (configuration not stated) | 10% | 70% | 60% | 60% | 90% | 0.9 | 1.41 | 10% | 100% | 100% | 100% | 100% | – | – | – | – | –
CCN(CC)C(=O)n1cnc(S(=O)(=O)[C@H](CC(C)C)C(=O)OC(C)C)n1 | 10% | 40% | 40% | 60% | 90% | – | – | – | – | – | – | – | – | – | – | – | Activity [13]: 10%; Activity (Pontederia vaginalis [14]): 10%; Activity [15]: 40%; Activity (Echinochloa oryzicola [16]): 50%; Activity (Oryza sativa [17]): 10%
CCCCCOC(=O)C(CC(C)C)S(=O)(=O)c1ncn(C(=O)N(CC)CC)n1 (configuration not stated) | 10% | 10% | 10% | 30% | 40% | 1.18 | 0.62 | 10% | 40% | 10% | 60% | 40% | – | – | – | – | –
CCCCOC(=O)C(CC(C)C)S(=O)(=O)c1ncn(C(=O)N(CC)CC)n1 (configuration not stated) | 10% | 100% | 90% | 60% | 100% | 1.04 | 1.3 | 10% | 100% | 100% | 80% | 100% | – | – | – | – | –
CCN(CC)C(=O)n1cnc(S(=O)(=O)C(CC(C)C)C(=O)OC(C)C)n1 (configuration not stated) | 10% | 60% | 40% | 90% | 90% | 0.89 | 1.41 | 10% | 100% | 100% | 100% | 100% | – | – | – | – | Activity [13]: 30%; Activity (Pontederia vaginalis [14]): 10%; Activity [15]: 40%; Activity (Echinochloa oryzicola [16]): 40%; Activity (Oryza sativa [17]): 10%
CCN(CC)C(=O)n1cnc(S(=O)(=O)C(CC(C)C)C(=O)OC)n1 (configuration not stated) | 10% | 80% | 50% | 70% | 100% | 0.68 | 1.26 | 10% | 100% | 100% | 100% | 100% | 40% | 100% | 100% | 100% | –
CCOC(=O)C(CC(C)C)S(=O)(=O)c1ncn(C(=O)N(CC)CC)n1 (configuration not stated) | 10% | 30% | 40% | 50% | 90% | 0.78 | 1.27 | 10% | 90% | 90% | 60% | 100% | – | – | – | – | –
CCN(CC)C(=O)n1cnc(S(=O)(=O)C(CC(C)C)C(=O)OCC(C)C)n1 (configuration not stated) | 10% | 30% | 40% | 30% | 40% | 1.03 | 0.91 | 10% | 100% | 100% | 60% | 80% | – | – | – | – | –
CCN(CC)C(=O)n1cnc(S(=O)(=O)C(C(=O)OC)C2CCCC2)n1 (configuration not stated) | – | – | – | – | – | 0.69 | 1.27 | 10% | 100% | 100% | 90% | 100% | 80% | 90% | 90% | 90% | –
CCN(CC)C(=O)n1cnc(S(=O)(=O)c2c(C)cc(C)cc2C)n1 [CAFENSTROLE] | 10% | 90% | 100% | 90% | 100% | – | – | 10% | 100% | 100% | 100% | 100% | 60% | 100% | 90% | 90% | –
CCCCC(C(=O)OC)S(=O)(=O)c1ncn(C(=O)N(CC)CC)n1 (configuration not stated) | – | – | – | – | – | 0.69 | 0.9 | 10% | 10% | 40% | 30% | 90% | 50% | 100% | 90% | 90% | –
CCN(CC)C(=O)n1cnc(S(=O)(=O)C(CC2CCCCC2)C(=O)OC)n1 (configuration not stated) | – | – | – | – | – | 0.94 | 1.2 | 10% | 10% | 10% | 50% | 100% | 20% | 40% | 10% | 40% | –
